How the values were obtained:
Assay in all cases: MIC for vancomycin
Type in all cases: cell-based
[1] = tested on: Enterococcus faecium VRE02; conditions: VRE02, read-out: MIC (minimum inhibitory concentration for vancomycin)
[2] = tested on: Enterococcus faecium VRE03; conditions: strain VRE03, read-out: MIC (minimum inhibitory concentration for vancomycin)
[3] = tested on: Enterococcus faecium VRE04; conditions: strain VRE04, read-out: MIC (minimum inhibitory concentration for vancomycin)
[4] = tested on: Enterococcus faecium VRE05; conditions: strain VRE05, read-out: MIC (minimum inhibitory concentration for vancomycin)
[5] = tested on: Enterococcus faecium VRE06; conditions: strain VRE06, read-out: MIC (minimum inhibitory concentration for vancomycin)
[6] = tested on: Enterococcus faecium VRE07; conditions: strain VRE07, read-out: MIC (minimum inhibitory concentration for vancomycin)

Measured: MIC

CN[C@H](CC(C)C)C(=O)N[C@H]1C(=O)N[C@@H](CC(N)=O)C(=O)N[C@H]2C(=O)N[C@H]3C(=O)N[C@H](C(=O)N[C@H](C(=O)O)c4cc(O)cc(O)c4-c4cc3ccc4O)[C@H](O)c3ccc(c(Cl)c3)Oc3cc2cc(c3O[C@@H]2O[C@H](CO)[C@@H](O)[C@H](O)[C@H]2O[C@H]2C[C@](C)(N)[C@H](O)[C@H](C)O2)Oc2ccc(cc2Cl)[C@H]1O [vancomycin]
> 256 µg/mL: all assays above

— patent publication US7018807B2, “Method and medium for detecting vancomycin-resistant enterococcus” (priority 1996, dated 2006)
